Test results published in patent publication US20140378551A1, “Composition for the Prophylactic Treatment of Neuropathic Pain” (Universite d'Auvergne, priority 2011, published 2014).
Read-outs that look alike come from different tables or passages of the source.

What was measured:
[1] = test system: neuropathic pain induced by spinal nerve ligation among rats; experiment: Y-Maze test: spatial memory, spinal nerve ligation model; assay type: in vivo, rat
Protocol: The effects of the prolonged and preventive administration of memantine were first of all studied among rats. The model used was that of the ligation of the spinal nerve L5 (herein after called SNL for spinal nerve ligation) among rats. The emergence of neuropathic pain is assessed according to the following criteria: • the behavior of the rat following the spinal nerve ligation (SNL), • cognition, and • molecular events, including the expression of phosphorylated tyrosine 1472 of the NR2B sub-unit of the NMDA receptor at the spinal level.
The study was based on the comparison of the two main groups of animals. The first group was a control group. The rats of the control group, designated as “Sham” in the graphs, underwent no operation. They are used to assess the role of the injected substances on the individual, without there being any emergence of neuropathic pain.
Two sub-groups were set up in this group: • one sub-group treated with the vehicle which is a saline solution of NaCl 0.9% by mass, in a dose of 1 mL/kg/rat/day, by intraperitoneal injection; and • one sub-group treated with memantine in a dose of 20 mg/kg/rat/day, by intraperitoneal injection. […]
The rat is placed in the middle of a chamber with three arms, each 40 cm long and 4 cm wide. The rat moves around freely in the different arms for five minutes and the number of entries into each of the arms is counted up. […]

[2] = test system: post-operative neuropathic pain; experiment: Phase 2 clinical trial, pain self-evaluation after mastectomy and axillary dissection; assay type: in vivo, human; conditions: follow-up after operation, self-evaluation scale 1 to 10; preliminary results
Protocol: A phase 2 clinical trial on the development and evaluation of neuropathic pain was conducted among patients having to undergo mastectomy and axillary dissection. The patients were separated randomly into two groups: • a control group who were to receive lactose as a placebo; and • a group treated by memantine hydrochloride (EBIXA®).
The clinical trial protocol is described in detail in the form referenced NTC014536314 (http://clinicaltrials.gov). […]
The patient's pain was evaluated by asking them to assess their own pain on a numerical scale ranging from 1 to 10 (10 being the maximum stage of pain) for the two weeks following the operation and for three months following the operation. […] The development of neuropathic pain is also evaluated by the DN4 questionnaire on neuropathic pain, and the Questionnaire sur la Douleur de Saint-Antoine (QDSA) or “Saint-Antoine pain questionnaire”. […]
FIG. 7 is a graph showing the preliminary results obtained on the first […] having taken part in these clinical trials (six patients had received the placebo composition and seven patients had received the memantine-hydrochloride-based composition), their pain being evaluated by the method of self-evaluation on a scale of 1 to 10. […]

neuropathic pain in rats = conditions: sciatic nerve ligature or formalin injection, administered during or after the operation (Eisenberg 1995; Carlton 1995), cited from earlier work
[3] = test system: neuropathic pain in patients; conditions: cited from earlier work

CC12CC3CC(C)(C1)CC(N)(C3)C2 [memantine, 1-amino-3,5-dimethyl-adamantane]
capacity of exploration (time passed in exploring the arms) ([1]; SNL rats, memantine for the 4 days preceding operation and days following): this capacity is restored
capacity of exploration (time passed in exploring the arms) ([1]; rats without ligation, injection for one week, compared with normal rats): does not significantly modify the capacity of exploration of the rat
level of pain versus placebo [2]: patients having received the placebo have a higher level of pain than patients having received memantine
development of neuropathic pain in rats (neuropathic pain in rats): limits the appearance of symptoms of neuropathic pain but only dose-dependently and only for a determined period of time
development of neuropathic pain in rats (neuropathic pain in rats; listed as Memantine): positive effect in the development of neuropathic pain in rats
relief to patients with amputated limb or nerve lesions following surgery ([3]; Nikolajsen et al., 2000): inefficacious
effect in patients who had undergone amputation ([3]; administered just after the operation (Buvanendran et al, 2008)): beneficial effect
